This note sets out measurements from ChEMBL document CHEMBL3507680, “University of Dundee, Gates Library screen for HepG2 cell viability”.

Molecules are shown by their SMILES.

The nature of this data set: Human HepG2 cell viability assay in 384 well format. The data set is classed as toxicity, cell-based. Also on record: dose 125 nL, time 70.5 hour; cytotoxicity at 70.5 h: concentration not given beside the values. The conditions noted are these: HepG2 cells, read-out: Inhibition.
As for `O=C(O)[C@@H]1CN(C(=O)CN2CCCCCC2)C[C@H]1c1ccccc1`, the cytotoxicity at 70.5 h was 1.47%.
For the compound `Cc1ccc(-c2ccnc(NC(c3ncccc3C)C3CC3)n2)c(C)n1` (stereo not drawn), the cytotoxicity at 70.5 h is -3.87%.
As to `Cc1cnc(N)nc1N1CCN(CCCO)CC1`, the cytotoxicity at 70.5 h was -10.3%.
In the case of `Cc1ccccc1-c1ncc(CNCc2csc(C(C)C)n2)s1`, the cytotoxicity at 70.5 h is -5.31%.
With `Cc1ccc(CN(Cc2ccccn2)C(=O)[C@H]2CC[C@@H](N)C2)s1`, the cytotoxicity at 70.5 h was -10.2%.
On to `CC(C)N(C)S(=O)(=O)c1ccc2c(c1)CCN(C(=O)c1cnccn1)C2`, for which the cytotoxicity at 70.5 h is -5.23%.
For the compound `O=C(c1cc(=O)n(-c2ccccc2)[nH]1)N1CCOCC(O)C1` (stereo not drawn), the cytotoxicity at 70.5 h came out at 22.9%.
`c1ccc(-c2nc3c(c(NCCn4ccnn4)n2)CCNCC3)nc1`: the cytotoxicity at 70.5 h is -6.02%.
The value for `COc1ccc(OCCN2CCOCS2(=O)=O)cc1` was -6.02%.
In the case of `O=C1NCC(c2ccc(Cl)cc2)Cc2[nH]c(CCN3CCOCC3)nc21` (stereo not drawn), the cytotoxicity at 70.5 h was -12.7%.
With `CC(C)n1ccnc1C1CCN(C(=O)N2CCCC2)CC1`, the cytotoxicity at 70.5 h was -9.54%.
For `O=C(NC1CC1)c1ccnc(N2CCOC(c3ccc(Cl)c(Cl)c3)C2)c1` (stereo not drawn), the cytotoxicity at 70.5 h came to 9.19%.
`CC(=O)N1CCN(C[C@H]2CC[C@@H](Cc3ccc4ncccc4c3)O2)CC1`: the cytotoxicity at 70.5 h was -10.6%.
In the case of `CCCN1C[C@H]2CC[C@@H]1CN(C(=O)Cn1c(C)cc(C)nc1=O)C2`, the cytotoxicity at 70.5 h was -14.9%.
With `CC(C)=CCN1CCN(CCCOc2ccccc2)[C@H]2CS(=O)(=O)C[C@H]21`, the cytotoxicity at 70.5 h was -4.88%.
`O=C(CN1CCNCC1)NCc1ccc2sccc2c1`: the cytotoxicity at 70.5 h was 3.14%.
For the compound `COc1cc(NCC(c2ccccn2)N(C)C)ncn1` (stereo not drawn), the cytotoxicity at 70.5 h is -5.7%.
Consider `CCc1noc(CN(CC)Cc2cc3ccc(F)cc3[nH]c2=O)n1`, for which the cytotoxicity at 70.5 h is 9.1%.
Next, `CN(C)S(=O)(=O)N1CCN(CC2CCOc3ccccc3C2)CC1` (stereo not drawn): -4.7%.
As to `COCc1cc(NCc2ccccc2OC)ncn1`, the cytotoxicity at 70.5 h was -7.89%.
As for `Cc1noc(C)c1CCC(=O)N1CCOCC1CC(=O)N1CCCC1` (stereo not drawn), the cytotoxicity at 70.5 h stood at 1.48%.
Consider `O=C(O)[C@@]12CN(c3cnccn3)C[C@@H]1CN(C1CCOCC1)C2`, for which the cytotoxicity at 70.5 h is -4.6%.
Take `Cc1[nH]c2c(F)cccc2c1CC(=O)N1CCN(C2CCSCC2)CC1`: the cytotoxicity at 70.5 h is -19.7%.
As for `CC1(C(=O)N2CCC(n3cc(C4(O)CCCC4)nn3)CC2)CCCCC1`, the cytotoxicity at 70.5 h was -9.72%.
Turning to `COc1ccc(OC)c2c(C)cc(N(CCO)CCO)nc12`, the cytotoxicity at 70.5 h turned out to be 19.5%.
Take `CCn1cc(SCC(=O)N2CCCC(O)(CO)C2)c2ccccc21` (stereo not drawn): the cytotoxicity at 70.5 h is -8.91%.
With `CN1CCCN(C(C(=O)O)c2ccc3c(c2)OCO3)CC1` (stereo not drawn), the cytotoxicity at 70.5 h turned out to be 0.827%.
For `CCN(CC)c1ccc(C(=O)N2C[C@@H]3CC[C@H](C2)N(CCOC)C3)cc1`, the cytotoxicity at 70.5 h is 23.2%.
For the compound `Cc1nc(C)c(C)c(N2C[C@@H](CN3CCCN(C)CC3)[C@@H](CO)C2)n1`, the cytotoxicity at 70.5 h is -1.83%.
Consider `Cc1noc(C)c1C(=O)N1C[C@H]2CC[C@@H]1CN(c1cnccn1)C2`, for which the cytotoxicity at 70.5 h is -5.44%.
For `CCCS(=O)(=O)N1CCC2(CCC(=O)N(Cc3ccccc3)C2)CC1`, the cytotoxicity at 70.5 h was -4.86%.
As to `CN1CCCN(C(=O)c2csc(-c3ccc(C(F)(F)F)cc3)n2)CC1`, the cytotoxicity at 70.5 h is -7.23%.
With `COc1ccc(F)cc1-c1nc2c([nH]1)c(C1CC1)nn2C`, the cytotoxicity at 70.5 h was -4.46%.
Regarding `O=C(c1cccnc1O)N1CCC2(CCCO2)CC1`, the cytotoxicity at 70.5 h was -6.62%.
With `CCNC(=O)c1cn2cc(-c3ccccc3Cl)n(CC3CC3)c(=O)c2n1`, the cytotoxicity at 70.5 h turned out to be 16.2%.
Consider `Cc1cc(-c2nc(-c3c(C)ncc4c3CCNC4)no2)nc(C)n1`, for which the cytotoxicity at 70.5 h is 26.9%.
In the case of `CC(C)c1nnc(CN2C(=O)OC[C@@H]2C(C)C)o1`, the cytotoxicity at 70.5 h was -5.17%.
As to `Cc1noc(C)c1CN1C[C@@H](C(=O)O)[C@H](c2ccccn2)C1`, the cytotoxicity at 70.5 h is -6.58%.
Take `CC(c1ccccn1)N(C)Cc1cc2cc3c(cc2[nH]c1=O)OCO3` (stereo not drawn): the cytotoxicity at 70.5 h came out at 6.6%.
The value for `COc1ccc(-c2ccnc(N)c2)c(OC)c1` was 13.7%; that for `CN(C)S(=O)(=O)N1CC[C@]2(O)CCN(CCc3cccc(F)c3)C[C@@H]2C1` was -11.2%; that for `CN(C)C(=O)N1CCN(CCCc2ccccc2)[C@H]2CS(=O)(=O)C[C@H]21` was -1.41%.
Consider `Nc1nccc(N2C[C@@H](CN3CCCCC3)[C@@H](CO)C2)n1`, for which the cytotoxicity at 70.5 h was -6.83%.
As to `O=C(O)c1ccc(CNC(=O)C2CCN(C(=O)C3CCC3)CC2)s1`, the cytotoxicity at 70.5 h was -12.2%.
In the case of `CCc1[nH]c2c(CNc3nccc(N)n3)cc(F)cc2c1C`, the cytotoxicity at 70.5 h is 16.1%.
`Cc1ncc(S(C)(=O)=O)c(N2CCCCCC2)n1`: the cytotoxicity at 70.5 h stood at 7.29%.
Regarding `O=C(Nc1ccc(-c2cscn2)cc1)C1CCCN(Cc2ccon2)C1` (stereo not drawn), the cytotoxicity at 70.5 h is -1.4%.
`CCn1c(Cn2cncn2)nnc1C1CCN(Cc2cccnc2)CC1`: the cytotoxicity at 70.5 h is 9.57%.
With `CN(C)S(=O)(=O)N1CC[C@]2(O)CCN(Cc3cc(F)cc(F)c3)C[C@@H]2C1`, the cytotoxicity at 70.5 h was 10.9%.
As to `CC(C)CN1CCc2[nH]cnc2C12CCN(C(=O)c1ccc[nH]1)CC2`, the cytotoxicity at 70.5 h is -3.93%.
In the case of `OC1(CNCCc2nc3c(s2)CCCC3)CNCCOC1` (stereo not drawn), the cytotoxicity at 70.5 h was found to be 4.06%.
As to `Clc1ccc2nc(N3CCC(NCCCC4CCOC4)CC3)sc2c1` (stereo not drawn), the cytotoxicity at 70.5 h was 48.3%.
As to `CC(C)OC(=O)N1CCC(Cc2cccc(C(N)=O)c2)C1` (stereo not drawn), the cytotoxicity at 70.5 h was 35.3%.
The value for `CN(CCO)C1CCN(c2ncc3c(n2)CCN3c2ccccc2)CC1` was -3%; that for `CCC[C@@H]1CN(Cc2c[nH]nc2-c2ccc(F)cc2)C[C@H]1NS(C)(=O)=O` was -3.18%.
Regarding `COCCCN(C)[C@@H]1c2ccccc2C2(CCNCC2)[C@H]1O`, the cytotoxicity at 70.5 h is -9.86%.
Turning to `COc1ccc(CNC(=O)CCN2C[C@@H](C)[C@](O)(C3CC3)C2)cc1`, the cytotoxicity at 70.5 h is -4.82%.
For `CCN1CCC(CC(=O)N2CCCCC2CCn2cccn2)CC1` (stereo not drawn), the cytotoxicity at 70.5 h was -11.1%.
`CN(Cc1csc(-c2ccccc2)n1)C(=O)CCNS(C)(=O)=O`: the cytotoxicity at 70.5 h is -8.29%.
The value for `Cc1cc(C(=O)N2CCC(CCC(=O)NCCN(C)C)CC2)ccc1O` was 24.4%.
Turning to `COc1cccc(CCC2CCCN(C(=O)c3ccccn3)C2)c1` (stereo not drawn), the cytotoxicity at 70.5 h was found to be 17.8%.
Next, `CCC(CO)N(Cc1ccncc1)Cc1c[nH]nc1-c1ccc(F)cc1` (stereo not drawn): -7.22%; `CCOCCn1c(=O)n(CCC(C)C)c2ncc(C(=O)O)cc21`: 1.96%.
On to `C[C@@H]1CN(C(=O)c2ccncc2)CC[C@@]1(O)C1CCOCC1`, for which the cytotoxicity at 70.5 h is -1.23%.
In the case of `Cc1cc(CN2CCC(CNC(=O)C3(c4ccccc4)CC3)C2)[nH]n1` (stereo not drawn), the cytotoxicity at 70.5 h turned out to be 6.56%.
Turning to `COCCN(C)C[C@H]1CC[C@@H](Cc2ccc3c(cnn3C)c2)O1`, the cytotoxicity at 70.5 h was -6.52%.
As to `COCCn1ccnc1C1CCN(C(=O)CSc2nnc(C)s2)CC1`, the cytotoxicity at 70.5 h is -5.74%.
Turning to `Cc1ccc(CCN2C(=O)CC[C@H]3CN(Cc4cnn(C)c4)CC[C@H]32)o1`, the cytotoxicity at 70.5 h is -0.704%.
